Test results: patent US20200109117A1, “Modified Therapeutic Agent Analogs of Mefenamic Acid” (ACCESS Association, priority 2018, published 2020)
Read-outs that look alike come from different tables or passages of the source.

How the values were obtained:
[1] = pH 7.1; cited from earlier work
[2] = system: pilocarpine-induced seizure rats; experiment: BBB permeability by contrast-enhanced MRI (Gd-DTPA) in rat seizure pre-clinical model; assay type: in vivo
Procedure: Structure (I), MFA-NIC, was assessed as a possible therapeutic in a rat seizure pre-clinical model. Assessments were conducted using Contrast-enhanced (CE) magnetic resonance (MR) imaging (MRI) and MR spectroscopy (MRS). The seizure model initially involved injection of pilocarpine (380 mg/kg i.p.) alone (Ikonomidou-Turski et al., 1988), however all rats undergoing this procedure died before MRS data could be obtained. A more recent model by Jeong et al. (2017) was adopted, where a lower dose of pilocarpine (25 mg/kg i.p.) was preceded by lithium chloride (127 mg/kg i.p.) 19 hours before, and scopolamine (2 mg/kg i.p.) 30 min. before, pilocarpine. Injection of pilocarpine induced status epilepticus about 20-30 min post-pilocarpine (Jeong et al., 2017). Pascente et al. (2016) also used lithium chloride 18 hours before pilocarpine. Scopolamine was also used by Behr et al. (2017) 30 m in before pilocarpine. Electroencephalography (EEG) was used in the Behr et al. study to confirm seizures.
A MRI contrast agent, Gd-DTPA (gadolinium diethylene triamine penta acetic acid) was used to establish if there was increased BBB permeability. […] Three brain regions were assessed: hippocampus, thalamus and cerebral cortex. […] This may be due to the variability in the change in MRI signal intensity in the seizure group, and the low number of rats per group. The smaller variability in the saline-treated controls was due to the large […] of n=25 (obtained from a previous study conducted in the Towner group). […] The saline-treated controls were used for all statistical comparisons.

[3] = Solubility in distilled water and normal saline, visual inspection and HPLC; assay type: physicochemical; details: for Aqueous solubility checked on HPLC: aqueous solution, analogs compared with MFA; for Aqueous solubility on visual inspection: analogs compared with parent MFA
Text: The solubility of each molecular structure was checked in distilled water as well as in normal saline.

[4] = Stability study of MFA analogs in acetonitrile and distilled water, 1 day and 7 days, visual and HPLC; assay type: physicochemical; details: for Stability in acetonitrile and in distilled water up to 7 days: 4° C. and room temperature (~25° C.); for Stability 1 Day ACN 4° C. / Stability 7 Day ACN 4° C. / Stability 1 Day ACN RT / Stability 7 Day ACN RT: acetonitrile; for Stability 7 Day ACN 4° C. / Stability 7 Day ACN RT / Stability 7 Day DW 4° C. / Stability 7 Day DW RT: 7 days; for Stability 1 Day ACN RT / Stability 7 Day ACN RT / Stability 1 Day DW RT / Stability 7 Day DW RT: room temperature (~25° C.); for Stability 1 Day DW 4° C. / Stability 7 Day DW 4° C. / Stability 1 Day DW RT / Stability 7 Day DW RT: distilled water; for Stability in acetonitrile / Stability in distilled water after 1 day: after 1 day
Text: Therapeutic agents stable after 1 day were subjected to a 7 day stability study.
FIG. 1 provides the HPLC chromatogram of MFA-NIC showing stability of the modified drug kept at room temperature on day seven. FIG. 2 provides the HPLC chromatogram of MFA-MeNIC showing stability of the modified drug kept at room temperature on day seven.

[5] = system: pilocarpine-induced seizure rats; experiment: Brain metabolite levels by MR spectroscopy (ratios to Cho) in rat seizure pre-clinical model; assay type: in vivo
Procedure: Assessments were conducted using Contrast-enhanced (CE) magnetic resonance (MR) imaging (MRI) and MR spectroscopy (MRS). […] A more recent model by Jeong et al. (2017) was adopted, where a lower dose of pilocarpine (25 mg/kg i.p.) was preceded by lithium chloride (127 mg/kg i.p.) 19 hours before, and scopolamine (2 mg/kg i.p.) 30 min. before, pilocarpine. Injection of pilocarpine induced status epilepticus about 20-30 min post-pilocarpine (Jeong et al., 2017).
MRS was used to assess levels of brain metabolites, including N-acetyl aspartate (NAA), total creatine (Cr, total choline (Cho), taurine (Tau), glutamate (Glu) and myo-inositol (Myo-Ins). Cho was used as a normalization reference for all other metabolites. For the control group a total of 10 rats were assessed. For all other treatment groups n=5.

[6] = system: pilocarpine-induced seizure rats; experiment: EEG of seizure episodes in rat seizure model; assay type: in vivo; details: preliminary data
[7] = cerebral cortex, 50 mg/kg via gavage
[8] = cerebral cortex, 200 mg/kg via gavage
[9] = distilled water, water, solvent DW (distilled water), read-out: Solubility after molecular weight correction factor
[10] = distilled water, water, solvent DW (distilled water), read-out: Solubility in NS and DW
[11] = normal saline, saline or isotonic, solvent NS (normal saline), read-out: Solubility after molecular weight correction factor
[12] = normal saline, saline or isotonic, solvent NS (normal saline), read-out: Solubility in NS and DW
[13] = 200 mg/kg dose, found most effective
[14] = central brain region (primarily hippocampus), 10 mg/kg via gavage

Row | SMILES | BBB permeability vs saline-treated controls [2, 7] | BBB permeability vs saline-treated controls [2, 8] | Aqueous solubility checked on HPLC [3] | Area (HPLC) ([3]; solvent DW (distilled water)) | Area (HPLC) ([3]; solvent NS (normal saline)) | Aqueous solubility on visual inspection ([3]; water) | Stability in acetonitrile and in distilled water up to 7 days [4] | Stability 1 Day ACN 4° C. [4] | Stability 7 Day ACN 4° C. [4] | Stability 1 Day ACN RT [4] | Stability 7 Day ACN RT [4] | Stability 1 Day DW 4° C. [4] | Stability 7 Day DW 4° C. [4] | Stability 1 Day DW RT [4] | Stability 7 Day DW RT [4] | solubility [3, 9] [µg/mL] | solubility [3, 10] [µg/mL] | solubility [3, 11] [µg/mL] | solubility [3, 12] [µg/mL] | Stability in acetonitrile [4] | further results
1 | Cc1cccc(Nc2ccccc2C(=O)O)c1C [MFA, N-(2,3-Dimethylphenyl)anthranilic acid, reference compound] | significant increase | significant increase | No peak | No Peak | No Peak | insoluble | – | – | – | – | – | – | – | – | – | – | – | – | – | – | Water solubility [1]: 0.004%; BBB permeability vs saline-treated controls ([2]; hippocampus, 50 mg/kg via gavage): significant increase; BBB permeability vs saline-treated controls ([2]; thalamus, 50 mg/kg via gavage): significant increase; BBB permeability vs saline-treated controls ([2]; thalamus, 200 mg/kg via gavage): significant increase
2 | Cc1cccc(Nc2ccccc2C(=O)OC[n+]2cccc(C(=O)N(C)C)c2)c1C [MFA-2MeNIC, MFA- N,N-Dimethylnicotinamide N-Methylnicotinamide] | – | – | much higher | 9876828 | 18274457 | significantly higher | stable | Stable | Stable | Stable | Stable | Stable | Stable | Stable | Stable | 180 | 390 | 330 | 720 | – | –
3 | CNC(=O)c1ccc[n+](COC(=O)c2ccccc2Nc2cccc(C)c2C)c1 [MFA-MeNIC, MFA- N-Methylnicotinamide] | – | – | much higher | 10643970 | 13844823 | significantly higher | stable | Stable | Stable | Stable | Stable | Stable | Stable | Stable | Stable | 200 | 460 | 270 | 600 | – | –
4 | Cc1cccc(Nc2ccccc2C(=O)OCOC(=O)c2ccc[n+](C)c2)c1C [MFA-MeNICA, MFA-N-methylnicotinic acid] | – | – | – | – | – | – | – | Stable | – | Stable | – | – | – | – | – | – | – | – | – | stable | Stability in distilled water after 1 day [4]: unstable
5 | Cc1cccc(Nc2ccccc2C(=O)OC[n+]2cccc(C(N)=O)c2)c1C [MFA-NIC, MFA-Nicotinamide] | significant increase | not significantly different | much higher | 6867539 | 2350506 | significantly higher | stable | Stable | Stable | Stable | Stable | Stable | Stable | Stable | Stable | 130 | 280 | 40 | 100 | – | Brain metabolite levels, overall effect [5, 13]: effective in restoring brain metabolite levels back to normal; Myo-Ins/Cho ratio vs control (non-treated, non-seizure) group [5, 14]: significant decrease; NAA/Cho ratio vs control (non-treated, non-seizure) group [5, 14]: significant decrease; BBB permeability, overall effect [2, 13]: effective in preventing an increase in BBB permeability; BBB permeability vs saline-treated controls ([2]; cerebral cortex, 10 mg/kg via gavage): not significantly different; BBB permeability vs saline-treated controls ([2]; hippocampus, all doses (10, 50 or 200 mg/kg via gavage)): None of the MFA-NIC (shown in FIGS. 4-11 as pro-MFA or pMFA)-treated rats were found to be significantly different; BBB permeability vs saline-treated controls ([2]; thalamus, all doses (10, 50 or 200 mg/kg via gavage)): None of the MFA-NIC (pro-MFA or pMFA)-treated rats were found to be significantly different; Level of seizure episodes (EEG) [6]: does reduce the level of seizure episodes
6 | Cc1cccc(Nc2ccccc2C(=O)OCOC(=O)c2ccc[n+](COC(=O)NC(C)C)c2)c1C [MFA-PCA, MFA-Pyridinium, 3-carboxy-1-[N-(1-methylethyl)carbamic acid]] | – | – | – | – | – | – | – | – | – | – | – | – | – | – | – | – | – | – | – | not found to be stable | Stability in distilled water after 1 day [4]: not found to be stable
